Reference: paper PMC6092832, “Anti-inflammatory activities of Aedes aegypti cecropins and their protection against murine endotoxin shock” (Parasites & Vectors, 2018)
Where two headings read alike, the source gives them in different places. Where no end group is shown, it is not given here.

Experiments:
Assay type in all cases: cell-based
E. coli = system: E. coli
Source text: MIC: minimal inhibitory concentration. These concentrations represent mean values of three independent experiments performed in duplicates. CI: clinically isolated strain.

[1] = system: mouse peritoneal macrophages; test: CCK-8 cytotoxic assay; conditions: 24 h
Experimental: Cell Counting Kit-8 (CCK-8) was used to detect the cytotoxicity of AeaeCec1-5 against mammalian cells. In brief, mouse peritoneal macrophages, human PBMCs and Vero E6 cells were seeded in 96-well plates (2×10^4 cells/well, 100 μl/well). After cells adhered to culture plate, the culture medium was transferred with a two-fold dilution series of AeaeCec1-5 beginning with 50 μM (100 μl) prepared in serum-free RPMI-1640 for mouse macrophages and human PBMCs, and serum-free DMEM for Vero E6 cells. After incubation at 37 °C for 24 h, CCK-8 solution (10 μl/well) was added for an additional 4 h incubation. The absorbance at 450 nm was recorded on a microplate reader (Epoch Etock, BioTek, Vermont, USA).
Supplementary file 13071_2018_3000_MOESM2_ESM.tif: Additional file 2: Figure S1. Cytotoxicity of Ae. aegypti cecropins against mammalian cells. a Mice peritoneal macrophages, human PBMCs and Vero E6 cells were exposed to 50 μM AeaeCec1-5, respectively. b Mice peritoneal macrophages and human PBMCs were exposed to series of two-fold AeaeCec5 dilutions ranging from 3.125 to 50 μM, respectively. (TIF 161 kb)

[2] = system: LPS-stimulated mouse peritoneal macrophages
Experimental: (§1) ^aAnti-inflammatory interactions between peptide 1 and peptide 2 of AeaeCec peptides were determined by the chequerboard assay as described previously. First, 2-fold serial dilutions of peptides were prepared. Next, peptides were dissolved in PBS and added to mouse macrophages to final concentrations of 5, 2.5, 1.25, 0.625, 0.3125 µMin each well of a 96-well plate in the presence of E. coli LPS (100 ng/ml). The same volume of PBS served as a control. After incubation at 37˚Cfor 24 h, the culture supernatants of mouse macrophages were detected for the NO production (nitrite accumulation) using Griess reagent. Half maximal inhibitory concentrations (IC50) were calculated. The fractional inhibitory concentration index (FICI) was calculated for each combination using this equation: FICI = FICA+ FICB, where FICA= IC50 of peptide A in combination/IC50 of peptide A alone, and FICB= IC50 of peptide B in combination/IC50 of peptide B alone. FICI of ≤ 0.5 was interpreted as synergy, 0.5 < FICI ≤ 1.0 as additive, 1.0 < FICI ≤ 4.0 as indifferent, and FICI > 4.0 as antagonism. Data were calculated from three independent experiments and presented as mean ± SEM.
as §1, with “2” for “2 of AeaeCec peptides”, “µM in” for “µMin”, “supernatant” for “supernatants”, “assayed” for “detected”, “for” for “for the”, “≤1.0” for “≤ 1.0”

[3] = IC50 in combination with AeaeCec1 / IC50 alone
[4] = IC50 in combination with AeaeCec2 / IC50 alone
[5] = IC50 in combination with AeaeCec3 / IC50 alone
[6] = IC50 in combination with AeaeCec4 / IC50 alone
[7] = IC50 in combination with AeaeCec5(2W→2A) / IC50 alone
[8] = IC50 in combination with AeaeCec5 / IC50 alone

Substance	minimal inhibitory concentrations (E. coli) [mg/L]	cytotoxicity ([1]; 12.5 μM) [%]	cell death ([1]; 50 μM) [%]	cytotoxicity ([1]; concentration below 6.25 μM)	FIC [2, 3]	FIC [2, 4]	FIC [2, 5]	FIC [2, 6]	FIC [2, 7]	FIC [2, 8]
RWKFGKKLEKVGKNVFNAAKKALPVVAGYKAL-NH2 [AeaeCec5]	1.17 to 2.34	9.5	28.9	no cytotoxicity	0.44	0.42	0.47	0.46		
GGLKKLGKKLEGVGKRVFKASEKALPVVTGYKAI-NH2 [AeaeCec3]					0.49	0.52		0.50	0.51	0.47
GGLKKLGKKLEGAGKRVFKASEKALPVVVGIKAI-NH2 [AeaeCec4]					0.50	0.49	0.52		0.53	0.43
GGLKKLGKKLEGAGKRVFNAAEKALPVVAGAKALRK [AeaeCec1]						0.52	0.53	0.54	0.47	0.42
RAKFGKKLEKVGKNVFNAAKKALPVVAGYKAL-NH2 [AeaeCec5(2W→2A)]					0.61	0.57	0.54	0.56		
GGLKKLGKKLEGAGKRVFNAAEKALPVVAGAKAL-NH2 [AeaeCec2]					0.50		0.49	0.53	0.50	0.47
